Source: US20250235543A1, “MODIFIED PROTEINS AND PROTEIN DEGRADERS” (Cullgen (Shanghai), Inc., priority 2021, published 2025)
Where two headings read alike, the source gives them in different places.

What was measured:
cyclin D1 = assay: Cyclin D1 percentage degradation in Calu-1 cells (immunoblotting); type: cell-based; conditions: 16 hours
Description: (§1) […] A: protein percentage degradation >=80%; B: protein percentage degradation <80%, and >=50%; C: protein percentage degradation <50%, and >=30%; D: protein percentage degradation <30%.
(§2) Cultured cells were washed with cold PBS once and lysed in cold RIPA buffer supplemented with protease inhibitors and phosphatase inhibitors (Beyotime Biotechnology). The solutions were then incubated at 4° C. for 30 min with gentle agitation to fully lysed cells. Cell lysates were centrifuged at 13,000 rpm for 10 min at 4° C. and pellets were discarded. Total protein concentrations in the lysates were determined following BCA assays (Beyotime Biotechnology). Cell lysates were mixed with Laemmli loading buffer and heated at 99° C. for 5 min. Proteins were resolved on SDS-PAGE and visualized using Western ECL Substrate kits on a ChemiDoc MP Imaging system (Bio-Rad). Protein bands were quantitated using the Image Lab software provided by Bio-Rad.

CDK4 = target: T1, CDK4 (Homo sapiens, UniProt P11802); assay: CDK4 percentage degradation in Calu-1 cells (immunoblotting); type: cell-based; conditions: for inhibition at 10 µM: read-out: CDK4 Degradation (10 μM); for inhibition at 0.2 µM: read-out: CDK4 Degradation (200 nM)
T1 construct: endogenous in cells; host or cells: Calu-1
T1 sequence (P11802 2-303 limits assumed): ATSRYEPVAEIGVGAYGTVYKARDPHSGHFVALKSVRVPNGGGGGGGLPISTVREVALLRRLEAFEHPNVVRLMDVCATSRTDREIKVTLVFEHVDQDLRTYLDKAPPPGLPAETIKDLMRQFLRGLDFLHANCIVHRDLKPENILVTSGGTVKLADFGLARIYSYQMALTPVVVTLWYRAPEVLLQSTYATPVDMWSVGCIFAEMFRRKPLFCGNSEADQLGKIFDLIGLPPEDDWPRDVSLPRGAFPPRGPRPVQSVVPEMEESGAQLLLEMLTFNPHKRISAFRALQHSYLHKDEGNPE
T1 sequence (P24385 whole entry partner): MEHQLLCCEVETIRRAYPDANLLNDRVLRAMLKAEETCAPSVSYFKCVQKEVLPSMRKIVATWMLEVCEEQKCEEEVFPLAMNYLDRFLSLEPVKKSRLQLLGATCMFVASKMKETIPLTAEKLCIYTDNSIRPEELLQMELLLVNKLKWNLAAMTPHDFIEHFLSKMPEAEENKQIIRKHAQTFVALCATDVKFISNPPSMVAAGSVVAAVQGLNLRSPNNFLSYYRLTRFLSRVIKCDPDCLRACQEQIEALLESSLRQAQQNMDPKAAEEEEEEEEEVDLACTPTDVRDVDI
T1 sequence (Q16531 2-1140 limits assumed, further chain): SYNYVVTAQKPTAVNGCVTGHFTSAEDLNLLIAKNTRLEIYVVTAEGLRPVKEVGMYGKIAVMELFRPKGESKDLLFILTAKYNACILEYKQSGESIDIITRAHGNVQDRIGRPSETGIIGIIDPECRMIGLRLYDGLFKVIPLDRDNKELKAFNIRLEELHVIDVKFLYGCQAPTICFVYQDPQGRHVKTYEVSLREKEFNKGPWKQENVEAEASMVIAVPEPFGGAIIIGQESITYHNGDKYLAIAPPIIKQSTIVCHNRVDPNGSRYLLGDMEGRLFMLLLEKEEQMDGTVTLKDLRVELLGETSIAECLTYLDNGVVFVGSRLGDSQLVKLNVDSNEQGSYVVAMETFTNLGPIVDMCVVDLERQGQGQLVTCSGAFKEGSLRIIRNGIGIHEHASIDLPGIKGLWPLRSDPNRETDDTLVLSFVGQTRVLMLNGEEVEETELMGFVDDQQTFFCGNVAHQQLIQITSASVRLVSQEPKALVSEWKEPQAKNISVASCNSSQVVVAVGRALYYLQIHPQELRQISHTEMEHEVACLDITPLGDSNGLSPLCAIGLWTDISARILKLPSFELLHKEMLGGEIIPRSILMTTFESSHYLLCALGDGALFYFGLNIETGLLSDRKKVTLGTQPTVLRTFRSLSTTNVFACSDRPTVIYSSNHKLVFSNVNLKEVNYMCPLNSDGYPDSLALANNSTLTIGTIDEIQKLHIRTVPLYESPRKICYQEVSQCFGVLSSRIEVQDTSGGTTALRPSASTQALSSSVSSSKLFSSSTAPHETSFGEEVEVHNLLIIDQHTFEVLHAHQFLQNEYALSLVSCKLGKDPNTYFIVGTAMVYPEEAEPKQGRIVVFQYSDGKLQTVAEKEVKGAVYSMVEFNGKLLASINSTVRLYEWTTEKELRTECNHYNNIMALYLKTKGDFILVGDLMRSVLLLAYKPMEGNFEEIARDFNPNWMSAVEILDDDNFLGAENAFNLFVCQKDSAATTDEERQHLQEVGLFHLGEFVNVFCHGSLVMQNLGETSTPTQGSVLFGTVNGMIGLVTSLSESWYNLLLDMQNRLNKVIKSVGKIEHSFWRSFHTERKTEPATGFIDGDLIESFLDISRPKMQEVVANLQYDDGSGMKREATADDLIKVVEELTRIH
Description: as §1, §2

Structure (SMILES) | inhibition at 10 µM (CDK4; Calu-1 cells, 16 hours) | inhibition at 0.2 µM (CDK4; Calu-1 cells, 200 nM, 16 hours) | CyclinD1 Degradation (10 μM) (cyclin D1) | CyclinD1 Degradation (200 nM) (cyclin D1) | inhibition at 0.2 µM (CDK4; Calu-1, 16 h)
COc1ccc(NC(=O)c2ccccc2NC(=O)CCOCCOCCNC(=O)CN2CCN(c3ccc(Nc4ncc5c(C)c(C(C)=O)c(=O)n(C6CCCC6)c5n4)nc3)CC2)nc1 [CPD-342, 2-(3-(2-(2-(2-(4-(6-((6-Acetyl-8-cyclopentyl-5-methyl-7-oxo-7,8-dihydropyrido[2,3-d]pyrimidin-2-yl)amino)pyridin-3-yl)piperazin-1-yl)acetamido)ethoxy)ethoxy)propanamido)-N-(5-methoxypyridin-2-yl)benzamide] |  | 50 to 80% |  | A (protein percentage degradation >=80%) | 
CC(=O)c1c(C)c2cnc(Nc3ccc(N4CCN(CC(=O)NCCOCCOCCOCCOCCNc5cccc(C(=O)Nc6nc(C)c(C)s6)c5C)CC4)cn3)nc2n(C2CCCC2)c1=O [CPD-106, 3-((1-(4-(6-((6-Acetyl-8-cyclopentyl-5-methyl-7-oxo-7,8-dihydropyrido[2,3-d]pyrimidin-2-yl)amino)pyridin-3-yl)piperazin-1-yl)-2-oxo-6,9,12,15-tetraoxa-3-azaheptadecan-17-yl)amino)-N-(4,5-dimethylthiazol-2-yl)-2-methylbenzamide] |  | 50 to 80% |  | A (protein percentage degradation >=80%) | 
CC(=O)c1c(C)c2cnc(Nc3ccc(N4CCN(C(=O)CCCCCNc5ccc(C)c(C(=O)Nc6nc(C)c(C)s6)c5)CC4)cn3)nc2n(C2CCCC2)c1=O [CPD-129, 5-((6-(4-(6-((6-Acetyl-8-cyclopentyl-5-methyl-7-oxo-7,8-dihydropyrido[2,3-d]pyrimidin-2-yl)amino)pyridin-3-yl)piperazin-1-yl)-6-oxohexyl)amino)-N-(4,5-dimethylthiazol-2-yl)-2-methylbenzamide] |  |  |  | D (protein percentage degradation <30%) | < 30%
CC(=O)c1c(C)c2cnc(Nc3ccc(N4CCN(CC(=O)NCCOCCOCCOCCOCCOCCNc5cccc(C(=O)Nc6nc(C)c(C)s6)c5C)CC4)cn3)nc2n(C2CCCC2)c1=O [CPD-107, 3-((1-(4-(6-((6-Acetyl-8-cyclopentyl-5-methyl-7-oxo-7,8-dihydropyrido[2,3-d]pyrimidin-2-yl)amino)pyridin-3-yl)piperazin-1-yl)-2-oxo-6,9,12,15,18-pentaoxa-3-azaicosan-20-yl)amino)-N-(4,5-dimethylthiazol-2-yl)-2-methylbenzamide] |  | > 80% |  | A (protein percentage degradation >=80%) | 
CC(=O)c1c(C)c2cnc(Nc3ccc(N4CCN(CC(=O)NCCCCCCCNC(=O)CNc5ccc(C(=O)Nc6ncc(C)s6)c(C)c5)CC4)cn3)nc2n(C2CCCC2)c1=O [CPD-016, 4-((2-((7-(2-(4-(6-((6-Acetyl-8-cyclopentyl-5-methyl-7-oxo-7,8-dihydropyrido[2,3-d]pyrimidin-2-yl)amino)pyridin-3-yl)piperazin-1-yl)acetamido)heptyl)amino)-2-oxoethyl)amino)-2-methyl-N-(5-methylthiazol-2-yl)benzamide] |  | < 30% |  | D (protein percentage degradation <30%) | 
CC(=O)c1c(C)c2cnc(Nc3ccc(N4CCN(CC(=O)NCCOCCOCCC(=O)Nc5ccccc5C(=O)Nc5nc(C6CCN(C)CC6)c(C)s5)CC4)cn3)nc2n(C2CCCC2)c1=O [CPD-080, 2-(3-(2-(2-(2-(4-(6-((6-Acetyl-8-cyclopentyl-5-methyl-7-oxo-7,8-dihydropyrido[2,3-d]pyrimidin-2-yl)amino)pyridin-3-yl)piperazin-1-yl)acetamido)ethoxy)ethoxy)propanamido)-N-(5-methyl-4-(1-methylpiperidin-4-yl)thiazol-2-yl)benzamide] |  | < 30% |  | D (protein percentage degradation <30%) | 
COc1ccc(NC(=O)c2ccccc2NC(=O)COCCO[C@H]2CC[C@H](NC(=O)CN3CCN(c4ccc(Nc5ncc6c(C)c(C(C)=O)c(=O)n(C7CCCC7)c6n5)nc4)CC3)CC2)nn1 [CPD-366, 2-(2-(2-((trans-4-(2-(4-(6-((6-Acetyl-8-cyclopentyl-5-methyl-7-oxo-7,8-dihydropyrido[2,3-d]pyrimidin-2-yl)amino)pyridin-3-yl)piperazin-1-yl)acetamido)cyclohexyl)oxy)ethoxy)acetamido)-N-(6-methoxypyridazin-3-yl)benzamide] |  | < 30% |  | D (protein percentage degradation <30%) | 

Second part, led by results:

inhibition at 10 µM (CDK4; Calu-1 cells, 16 hours) | inhibition at 0.2 µM (CDK4; Calu-1 cells, 200 nM, 16 hours) | Structure (SMILES) | CyclinD1 Degradation (10 μM) (cyclin D1) | CyclinD1 Degradation (200 nM) (cyclin D1) | inhibition at 0.2 µM (CDK4; Calu-1, 16 h)
< 30% |  | Cc1nc(NC(=O)c2ccccc2NC(=O)CNC(=O)CN2CCN(Cc3ccc(Nc4ncc(F)c(-c5cc(F)c6nc(C)n(C(C)C)c6c5)n4)nc3)CC2)sc1C [CPD-272, N-(4,5-Dimethylthiazol-2-yl)-2-(2-(2-(4-((6-((5-fluoro-4-(4-fluoro-1-isopropyl-2-methyl-1H-benzo[d]imidazol-6-yl)pyrimidin-2-yl)amino)pyridin-3-yl)methyl)piperazin-1-yl)acetamido)acetamido)benzamide] | D (protein percentage degradation < 30%) |  | 
50 to 80% |  | Cc1nc(NC(=O)c2ccccc2NC(=O)CCCCNC(=O)CN2CCN(c3ccc(Nc4ncc5cc6n(c5n4)C4(CCCCC4)CNC6=O)nc3)CC2)sc1C [CPD-317, N-(4,5-Dimethylthiazol-2-yl)-2-(5-(2-(4-(6-((6′-oxo-7′,8′-dihydro-6′H-spiro[cyclohexane-1,9′-pyrazino[1′,2′:1,5]pyrrolo[2,3-d]pyrimidin]-2′-yl)amino)pyridin-3-yl)piperazin-1-yl)acetamido)pentanamido)benzamide] | A (protein percentage degradation >= 80%) |  | 
< 30% |  | Cc1nc(NC(=O)c2ccccc2NC(=O)CCCCCCCCNC(=O)CN2CCN(Cc3ccc(Nc4ncc(F)c(-c5cc(F)c6nc(C)n(C(C)C)c6c5)n4)nc3)CC2)sc1C [CPD-279, N-(4,5-Dimethylthiazol-2-yl)-2-(9-(2-(4-((6-((5-fluoro-4-(4-fluoro-1-isopropyl-2-methyl-1H-benzo[d]imidazol-6-yl)pyrimidin-2-yl)amino)pyridin-3-yl)methyl)piperazin-1-yl)acetamido)nonanamido)benzamide] | D (protein percentage degradation < 30%) |  | 
 | 50 to 80% | CC(=O)c1c(C)c2cnc(Nc3ccc(N4CCN(CC(=O)NCCCCCCCNc5ccccc5C(=O)Nc5nc(C)c(C)s5)CC4)cn3)nc2n(C2CCCC2)c1=O [CPD-364, 2-((7-(2-(4-(6-((6-Acetyl-8-cyclopentyl-5-methyl-7-oxo-7,8-dihydropyrido[2,3-d]pyrimidin-2-yl)amino)pyridin-3-yl)piperazin-1-yl)acetamido)heptyl)amino)-N-(4,5-dimethylthiazol-2-yl)benzamide] |  | A (protein percentage degradation >=80%) | 
< 30% |  | Cc1nc(NC(=O)c2ccccc2NC(=O)CCOCCOCCOCCNC(=O)CN2CCN(c3ccc(Nc4ncc(F)c(-c5cc(F)c6nc(C)n(C(C)C)c6c5)n4)nc3)CC2)sc1C [CPD-310, N-(4,5-Dimethylthiazol-2-yl)-2-(1-(4-(6-((5-fluoro-4-(4-fluoro-1-isopropyl-2-methyl-1H-benzo[d]imidazol-6-yl)pyrimidin-2-yl)amino)pyridin-3-yl)piperazin-1-yl)-2-oxo-6,9,12-trioxa-3-azapentadecan-15-amido)benzamide] | A (protein percentage degradation >= 80%) |  | 
